From ChEMBL document CHEMBL1145498, “A systematic interaction map of validated kinase inhibitors with Ser/Thr kinases” (Proc Natl Acad Sci U S A, 2007)

How the values were obtained:
[1] = target: TRAF2 and NCK-interacting protein kinase (Homo sapiens) (UniProt Q9UKE5)
[2] = target: Tyrosine-protein kinase JAK1 (Homo sapiens) (UniProt P23458)
[3] = target: Casein kinase I isoform gamma-1 (Homo sapiens) (UniProt Q9HCP0)
[4] = target: Death-associated protein kinase 3 (Homo sapiens) (UniProt O43293)
Death-associated protein kinase 3 (Homo sapiens), sequence (O43293 whole entry, looked up): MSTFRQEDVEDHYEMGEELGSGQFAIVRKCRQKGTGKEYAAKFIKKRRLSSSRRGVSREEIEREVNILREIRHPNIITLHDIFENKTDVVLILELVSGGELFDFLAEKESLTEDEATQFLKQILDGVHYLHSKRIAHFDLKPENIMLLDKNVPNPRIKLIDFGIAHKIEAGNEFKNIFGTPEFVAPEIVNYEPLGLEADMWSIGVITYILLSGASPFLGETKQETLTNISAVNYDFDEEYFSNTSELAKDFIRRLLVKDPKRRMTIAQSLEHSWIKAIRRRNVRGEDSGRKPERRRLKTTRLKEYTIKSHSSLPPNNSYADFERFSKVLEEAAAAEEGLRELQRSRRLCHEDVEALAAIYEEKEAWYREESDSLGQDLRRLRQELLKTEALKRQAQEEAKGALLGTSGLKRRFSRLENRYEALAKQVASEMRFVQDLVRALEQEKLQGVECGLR

[5] = target: Calcium/calmodulin-dependent protein kinase kinase 2 (Homo sapiens, UniProt Q96RR4)
Calcium/calmodulin-dependent protein kinase kinase 2, sequence (Q96RR4 2-588 limits assumed): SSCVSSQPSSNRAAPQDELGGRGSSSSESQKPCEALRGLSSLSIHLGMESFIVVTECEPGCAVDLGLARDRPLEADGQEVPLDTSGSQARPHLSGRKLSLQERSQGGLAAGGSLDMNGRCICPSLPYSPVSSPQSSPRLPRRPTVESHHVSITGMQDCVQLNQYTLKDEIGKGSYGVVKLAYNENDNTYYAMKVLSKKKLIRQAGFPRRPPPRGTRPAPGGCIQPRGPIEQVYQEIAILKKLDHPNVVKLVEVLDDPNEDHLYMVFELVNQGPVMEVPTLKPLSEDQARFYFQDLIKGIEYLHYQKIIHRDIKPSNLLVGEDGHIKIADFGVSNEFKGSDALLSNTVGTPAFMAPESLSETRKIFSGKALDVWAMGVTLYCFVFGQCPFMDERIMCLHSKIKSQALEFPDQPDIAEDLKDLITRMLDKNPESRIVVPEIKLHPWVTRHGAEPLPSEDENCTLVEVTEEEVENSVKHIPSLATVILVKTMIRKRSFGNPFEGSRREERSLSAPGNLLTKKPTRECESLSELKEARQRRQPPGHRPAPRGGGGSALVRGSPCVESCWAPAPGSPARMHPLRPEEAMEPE

[6] = target: Calcium/calmodulin-dependent protein kinase type II subunit delta (Homo sapiens) (UniProt Q13557)
[7] = target: 5'-AMP-activated protein kinase catalytic subunit alpha-2 (Homo sapiens) (UniProt P54646)
[8] = target: Serine/threonine-protein kinase RIO2 (Homo sapiens) (UniProt Q9BVS4)
[9] = target: Serine/threonine-protein kinase pim-3 (Homo sapiens) (UniProt Q86V86)
[10] = target: STE20-like serine/threonine-protein kinase (Homo sapiens) (UniProt Q9H2G2)
[11] = target: Serine/threonine-protein kinase OSR1 (Homo sapiens) (UniProt O95747)
[12] = target: Serine/threonine-protein kinase PAK 5 (Homo sapiens) (UniProt Q9P286)
[13] = target: Serine/threonine-protein kinase 26 (Homo sapiens) (UniProt Q9P289)
[14] = target: Serine/threonine-protein kinase 25 (Homo sapiens) (UniProt O00506)
[15] = target: Serine/threonine-protein kinase Nek6 (Homo sapiens) (UniProt Q9HC98)
Serine/threonine-protein kinase Nek6 (Homo sapiens), sequence (Q9HC98 whole entry): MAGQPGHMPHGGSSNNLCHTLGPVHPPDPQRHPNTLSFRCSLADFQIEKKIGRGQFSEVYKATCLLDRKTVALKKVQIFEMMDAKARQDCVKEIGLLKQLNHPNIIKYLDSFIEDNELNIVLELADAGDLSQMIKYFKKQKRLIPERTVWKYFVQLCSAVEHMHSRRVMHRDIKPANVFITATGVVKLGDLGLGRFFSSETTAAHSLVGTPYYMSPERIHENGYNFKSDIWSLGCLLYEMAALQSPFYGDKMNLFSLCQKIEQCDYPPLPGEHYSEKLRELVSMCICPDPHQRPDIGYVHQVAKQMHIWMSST

[16] = target: T1, Dual specificity mitogen-activated protein kinase kinase 6 (Homo sapiens) (UniProt P52564)
T1 sequence (whole entry): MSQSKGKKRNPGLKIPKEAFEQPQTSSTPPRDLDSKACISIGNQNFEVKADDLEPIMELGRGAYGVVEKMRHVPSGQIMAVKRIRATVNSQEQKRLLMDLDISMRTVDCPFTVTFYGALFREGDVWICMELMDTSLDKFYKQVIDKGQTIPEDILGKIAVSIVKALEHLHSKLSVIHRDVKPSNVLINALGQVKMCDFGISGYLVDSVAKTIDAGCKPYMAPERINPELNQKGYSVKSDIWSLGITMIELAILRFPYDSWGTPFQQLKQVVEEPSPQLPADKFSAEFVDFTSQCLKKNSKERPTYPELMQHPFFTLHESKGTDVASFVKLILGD

[17] = target: Mitogen-activated protein kinase 3 (Homo sapiens, UniProt P27361)
Mitogen-activated protein kinase 3, sequence (P27361 whole entry): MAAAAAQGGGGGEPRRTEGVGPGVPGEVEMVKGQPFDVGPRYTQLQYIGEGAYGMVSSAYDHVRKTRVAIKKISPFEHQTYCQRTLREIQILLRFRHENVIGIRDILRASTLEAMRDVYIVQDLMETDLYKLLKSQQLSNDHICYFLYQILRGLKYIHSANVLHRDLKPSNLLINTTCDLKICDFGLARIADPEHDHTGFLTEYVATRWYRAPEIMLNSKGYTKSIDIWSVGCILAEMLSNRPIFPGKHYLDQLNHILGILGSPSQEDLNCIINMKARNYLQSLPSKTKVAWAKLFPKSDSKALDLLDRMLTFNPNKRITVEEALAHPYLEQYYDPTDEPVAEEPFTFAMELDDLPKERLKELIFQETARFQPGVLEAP

[18] = target: cAMP-dependent protein kinase catalytic subunit alpha (Homo sapiens) (UniProt P17612)
[19] = target: Serine/threonine-protein kinase 10 (Homo sapiens) (UniProt O94804)
Serine/threonine-protein kinase 10 (Homo sapiens), sequence (O94804 whole entry, looked up): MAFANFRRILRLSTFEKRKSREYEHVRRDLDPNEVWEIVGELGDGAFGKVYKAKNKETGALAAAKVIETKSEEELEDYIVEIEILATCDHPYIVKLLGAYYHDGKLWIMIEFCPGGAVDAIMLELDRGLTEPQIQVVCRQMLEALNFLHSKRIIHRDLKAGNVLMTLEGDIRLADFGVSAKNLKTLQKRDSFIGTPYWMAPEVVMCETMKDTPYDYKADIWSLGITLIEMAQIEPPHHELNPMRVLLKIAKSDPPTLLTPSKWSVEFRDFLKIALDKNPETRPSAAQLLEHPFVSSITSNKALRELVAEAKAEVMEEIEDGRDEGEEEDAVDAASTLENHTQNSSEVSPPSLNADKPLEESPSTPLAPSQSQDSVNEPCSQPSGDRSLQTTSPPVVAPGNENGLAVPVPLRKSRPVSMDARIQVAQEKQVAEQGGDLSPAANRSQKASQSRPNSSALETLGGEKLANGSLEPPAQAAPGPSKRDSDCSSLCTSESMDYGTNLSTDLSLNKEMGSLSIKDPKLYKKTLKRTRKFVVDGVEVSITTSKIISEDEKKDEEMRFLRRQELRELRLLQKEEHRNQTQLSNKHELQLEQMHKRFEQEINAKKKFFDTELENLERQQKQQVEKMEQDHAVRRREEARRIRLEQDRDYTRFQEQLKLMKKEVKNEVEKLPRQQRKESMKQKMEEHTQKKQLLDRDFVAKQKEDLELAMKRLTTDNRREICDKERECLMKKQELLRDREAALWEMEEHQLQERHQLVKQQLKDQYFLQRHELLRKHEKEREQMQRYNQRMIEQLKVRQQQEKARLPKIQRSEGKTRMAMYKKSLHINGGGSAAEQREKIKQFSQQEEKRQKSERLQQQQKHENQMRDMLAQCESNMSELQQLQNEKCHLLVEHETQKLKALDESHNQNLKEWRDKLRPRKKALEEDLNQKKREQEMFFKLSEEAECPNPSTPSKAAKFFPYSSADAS

[20] = target: T2, Lymphokine-activated killer T-cell-originated protein kinase (Homo sapiens) (UniProt Q96KB5)
T2 sequence (whole entry): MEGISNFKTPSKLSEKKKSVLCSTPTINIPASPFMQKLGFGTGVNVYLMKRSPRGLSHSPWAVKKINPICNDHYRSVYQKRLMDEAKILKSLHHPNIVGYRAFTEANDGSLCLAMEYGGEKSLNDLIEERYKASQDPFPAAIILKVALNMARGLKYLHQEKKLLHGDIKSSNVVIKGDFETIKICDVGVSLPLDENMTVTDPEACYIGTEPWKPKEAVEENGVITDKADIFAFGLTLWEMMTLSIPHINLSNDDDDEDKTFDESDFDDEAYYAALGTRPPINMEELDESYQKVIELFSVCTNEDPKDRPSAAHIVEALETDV

[21] = target: Dual specificity protein kinase CLK2 (Homo sapiens) (UniProt P49760)
[22] = target: Glycogen synthase kinase-3 beta (Homo sapiens, UniProt P49841)
[23] = target: Calcium/calmodulin-dependent protein kinase type 1G (Homo sapiens) (UniProt Q96NX5)
[24] = target: Serine/threonine-protein kinase PLK1 (Homo sapiens) (UniProt P53350)
[25] = target: Casein kinase I isoform gamma-2 (Homo sapiens) (UniProt P78368)
Casein kinase I isoform gamma-2 (Homo sapiens), sequence (P78368 whole entry, looked up, canonical isoform): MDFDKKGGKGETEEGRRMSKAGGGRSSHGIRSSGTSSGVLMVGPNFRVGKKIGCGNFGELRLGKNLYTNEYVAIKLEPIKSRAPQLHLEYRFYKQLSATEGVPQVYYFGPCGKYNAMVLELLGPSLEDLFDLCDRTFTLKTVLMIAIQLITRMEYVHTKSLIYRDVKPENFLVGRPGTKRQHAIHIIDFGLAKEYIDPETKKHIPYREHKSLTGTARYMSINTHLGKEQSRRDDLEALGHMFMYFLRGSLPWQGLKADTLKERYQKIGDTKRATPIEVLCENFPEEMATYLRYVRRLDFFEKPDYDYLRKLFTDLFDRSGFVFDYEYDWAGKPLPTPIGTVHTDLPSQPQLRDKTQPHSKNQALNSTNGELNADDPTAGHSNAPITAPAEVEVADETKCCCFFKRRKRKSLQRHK

[26] = target: Ribosomal protein S6 kinase alpha-3 (Homo sapiens) (UniProt P51812)
[27] = target: Cyclin-dependent kinase 16 (Homo sapiens) (UniProt Q00536)
[28] = target: Calcium/calmodulin-dependent protein kinase type 1D (Homo sapiens) (UniProt Q8IU85)
[29] = target: Dual specificity mitogen-activated protein kinase kinase 2 (Homo sapiens, UniProt P36507)
[30] = target: Cyclin-dependent kinase 2 (Homo sapiens, UniProt P24941)

Casein kinase I isoform gamma-1 (Homo sapiens), sequence (Q9HCP0 whole entry, looked up, canonical isoform): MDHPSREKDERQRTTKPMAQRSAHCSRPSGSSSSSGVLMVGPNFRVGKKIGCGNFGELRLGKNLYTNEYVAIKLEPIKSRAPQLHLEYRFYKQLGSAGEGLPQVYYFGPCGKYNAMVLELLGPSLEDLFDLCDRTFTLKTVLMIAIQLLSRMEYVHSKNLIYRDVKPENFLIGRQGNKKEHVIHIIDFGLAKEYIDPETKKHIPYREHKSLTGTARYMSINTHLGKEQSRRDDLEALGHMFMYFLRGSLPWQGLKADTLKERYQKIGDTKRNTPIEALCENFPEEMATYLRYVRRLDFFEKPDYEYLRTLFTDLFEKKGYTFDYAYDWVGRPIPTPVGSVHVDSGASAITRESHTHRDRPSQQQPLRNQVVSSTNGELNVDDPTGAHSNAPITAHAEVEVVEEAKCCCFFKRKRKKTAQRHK
Tyrosine-protein kinase JAK1 (Homo sapiens), sequence (P23458 whole entry, canonical isoform): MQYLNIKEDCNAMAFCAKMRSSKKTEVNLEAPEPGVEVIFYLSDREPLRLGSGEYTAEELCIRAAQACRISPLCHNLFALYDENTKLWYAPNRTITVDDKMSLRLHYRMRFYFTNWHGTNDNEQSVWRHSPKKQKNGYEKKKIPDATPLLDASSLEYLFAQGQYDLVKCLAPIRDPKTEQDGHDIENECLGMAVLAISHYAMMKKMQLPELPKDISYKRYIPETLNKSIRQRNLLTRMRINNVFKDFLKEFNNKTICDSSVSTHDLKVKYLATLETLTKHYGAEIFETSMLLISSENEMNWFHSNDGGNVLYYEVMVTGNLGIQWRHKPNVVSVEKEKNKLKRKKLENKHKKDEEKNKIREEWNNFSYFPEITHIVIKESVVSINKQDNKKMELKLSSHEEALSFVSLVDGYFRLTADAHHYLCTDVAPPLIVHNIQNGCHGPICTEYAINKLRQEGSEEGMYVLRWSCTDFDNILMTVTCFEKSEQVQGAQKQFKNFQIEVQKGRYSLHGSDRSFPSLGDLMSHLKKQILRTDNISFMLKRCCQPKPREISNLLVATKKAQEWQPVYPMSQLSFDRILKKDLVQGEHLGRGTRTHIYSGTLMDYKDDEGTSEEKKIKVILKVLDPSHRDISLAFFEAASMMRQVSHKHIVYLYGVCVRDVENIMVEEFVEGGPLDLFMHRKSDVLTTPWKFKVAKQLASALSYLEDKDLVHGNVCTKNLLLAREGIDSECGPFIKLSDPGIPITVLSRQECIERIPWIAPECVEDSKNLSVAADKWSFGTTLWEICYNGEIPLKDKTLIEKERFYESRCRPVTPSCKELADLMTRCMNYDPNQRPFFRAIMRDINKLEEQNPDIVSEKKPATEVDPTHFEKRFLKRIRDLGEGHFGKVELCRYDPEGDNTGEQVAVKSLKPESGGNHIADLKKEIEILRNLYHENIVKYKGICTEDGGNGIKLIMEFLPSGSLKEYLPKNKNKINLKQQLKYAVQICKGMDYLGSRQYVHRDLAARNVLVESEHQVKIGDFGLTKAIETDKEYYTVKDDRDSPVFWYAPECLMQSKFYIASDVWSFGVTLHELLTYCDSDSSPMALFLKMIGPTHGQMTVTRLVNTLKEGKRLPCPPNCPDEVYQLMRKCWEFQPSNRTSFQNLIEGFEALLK

| SMILES | ΔTm [1] [°C] | ΔTm [2] [°C] | ΔTm [3] [°C] | ΔTm [4] [°C] | ΔTm [5] [°C] | ΔTm [6] [°C] | ΔTm [7] [°C] | ΔTm [8] [°C] | ΔTm [9] [°C] | ΔTm [10] [°C] | ΔTm [11] [°C] | ΔTm [12] [°C] | ΔTm [13] [°C] | ΔTm [15] [°C] | ΔTm [17] [°C] | ΔTm [18] [°C] | ΔTm [19] [°C] | ΔTm [20] [°C] | ΔTm [21] [°C] | ΔTm [22] [°C] | further results |
| --- | --- | --- | --- | --- | --- | --- | --- | --- | --- | --- | --- | --- | --- | --- | --- | --- | --- | --- | --- | --- | --- |
| CN[C@@H]1CC2O[C@@](C)([C@@H]1OC)n1c3ccccc3c3c4c(c5c6ccccc6n2c5c31)C(=O)NC4 | 9.4 | 1.9 | 1.9 | 13 | 18.6 | 17.1 | 16.7 | 0.5 | 17.7 | 20.1 | 6.9 | 12.4 | 8.8 | -0.3 | 1.3 | 11.3 | 24.8 | 0.4 | 6.9 |  | ΔTm [14]: 9.6 °C; ΔTm [16]: 11.6 °C |
| COC(=O)[C@]1(O)C[C@@H]2O[C@@]1(C)n1c3ccccc3c3c4c(c5c6ccccc6n2c5c31)C(=O)NC4 (single isomer, unassigned) | 8.7 | 0.8 | 0.6 | 4.6 | 4.2 | 3.5 | 7.6 | 1.4 | 5.8 | 6.3 | 1.8 | 5.5 | 1.6 | 0 | 2 | 7.1 | 10.9 | 0.4 | 4.8 | 4.5 | ΔTm [23]: 2.2 °C; ΔTm [24]: 2.6 °C; ΔTm [25]: 0.1 °C; ΔTm [14]: 4.4 °C; ΔTm [26]: 5.1 °C; ΔTm [27]: 0.8 °C; ΔTm [28]: 4 °C |
| Cn1cc(/C=C2/C(=O)Nc3ccc(S(N)(=O)=O)cc32)c2ccccc21 | 1.3 | 4.3 | -0.9 | 0.3 | 3.5 | 2.5 | 8.3 | 5 | 3.4 | 8.4 | 3.7 | 4.3 | -0.2 | 1.7 | 1.2 | 0.9 | 6.3 | -1.2 | 3.6 | 11.6 | ΔTm [23]: 0.5 °C; ΔTm [29]: 1.1 °C; ΔTm [24]: -0.7 °C; ΔTm [25]: 0.5 °C; ΔTm [26]: 4.8 °C; ΔTm [30]: 1.3 °C; ΔTm [16]: 10.3 °C; ΔTm [27]: 1.9 °C; ΔTm [28]: 2 °C |
| O=c1c(-c2ccc(F)cc2)c(-c2ccncc2)[nH]n1-c1ccc(Cl)cc1 | -0.2 | 0.3 | 0.5 | 0.6 | 0.2 | 0.1 | 0.2 | -0.2 | 0.5 | 2.4 | 0.2 | -0.1 | 0.6 | 0.8 | 1.2 | 1.5 | 4.3 | 0.8 | 0.8 | 1.9 | ΔTm [23]: 1.3 °C; ΔTm [29]: 1.9 °C; ΔTm [24]: 0.3 °C; ΔTm [25]: 0.7 °C; ΔTm [26]: 0 °C; ΔTm [30]: 0.2 °C; ΔTm [16]: 0.3 °C; ΔTm [27]: 0.3 °C; ΔTm [28]: 0.1 °C |
| O=c1c(-c2ccc(O)cc2)coc2cc(O)cc(O)c12 | 0.4 | -0.2 | 0.8 | 0.5 | 1.3 | 1.9 | 1.6 | 0.6 | 3 | 2.4 | -0.2 | 0.2 | 0.8 | 1 | 0.6 | 2.1 | 0 | 0.7 | 0.5 | 1.1 | ΔTm [23]: -0.1 °C; ΔTm [29]: 0.3 °C; ΔTm [24]: 1.4 °C; ΔTm [25]: 0.3 °C; ΔTm [26]: 1.5 °C; ΔTm [30]: 0.7 °C; ΔTm [16]: 0.9 °C; ΔTm [27]: -0.6 °C; ΔTm [28]: 0.7 °C |
| Nc1n[nH]c2nnc(-c3c(-c4ccccc4)nn4ccccc34)cc12 | 1.1 | 0.3 | 0.9 | 3.9 | 0.3 | -0.6 | 0 | -0.4 | 1.2 | 0.7 | 0.3 | -0.4 | -0.1 | 0.3 | 0.4 | 0.3 | -0.2 | 0.2 | 0.5 | 5 | ΔTm [23]: 0.1 °C; ΔTm [29]: 0.7 °C; ΔTm [24]: -0.3 °C; ΔTm [25]: 0 °C; ΔTm [26]: 1.7 °C; ΔTm [30]: 0.1 °C; ΔTm [16]: 0.2 °C; ΔTm [27]: 0.2 °C; ΔTm [28]: 0.1 °C |
| C#Cc1cccc(Nc2ncnc3cc(OCCOC)c(OCCOC)cc23)c1 | -0.2 | -0.1 | 0.5 | 1.2 | 0.1 | -0.3 | -0.6 | 0.3 | -0.1 | 8.2 | 0 | 0.1 | 0.6 | -0.7 | -0.3 | 0 | 0 | 0.7 | 0.3 | -0.1 | ΔTm [23]: 0 °C; ΔTm [29]: 0.6 °C; ΔTm [24]: 1.6 °C; ΔTm [25]: -0.1 °C; ΔTm [26]: 6.3 °C; ΔTm [30]: -0.6 °C; ΔTm [16]: 0.2 °C; ΔTm [27]: -0.4 °C; ΔTm [28]: 0.1 °C |
| COc1cc2ncnc(Nc3ccc(F)c(Cl)c3)c2cc1OCCCN1CCOCC1 | -1 | 1.2 | 0.5 | 3.2 | 0.7 | 0.1 | -0.3 | 2 | -0.2 | 7.8 | 0.2 | 0.2 | 1.2 | -0.4 | -0.2 | 1.1 | 0 | 0.6 | 0 | 0.9 | ΔTm [23]: 1 °C; ΔTm [29]: 0.2 °C; ΔTm [24]: 1.2 °C; ΔTm [25]: -0.2 °C; ΔTm [26]: 5.3 °C; ΔTm [30]: 0 °C; ΔTm [16]: 0.1 °C; ΔTm [27]: -0.3 °C; ΔTm [28]: 0.4 °C |
| COc1cc2ncnc(Nc3cccc(O)c3)c2cc1OC | 0.9 | 2.1 | 1.3 | 1.7 | 1.1 | -0.6 | -0.5 | 3.4 | 2 | 3.2 | 0.2 | 0.5 | 0.1 | -0.1 | -0.2 | 0.1 | 4.2 | -0.1 | 1.3 | 2.2 | ΔTm [29]: 0.1 °C; ΔTm [24]: 1 °C; ΔTm [25]: 1.5 °C; ΔTm [14]: 0.6 °C; ΔTm [27]: -0.6 °C; ΔTm [28]: -0.1 °C |
